A short description of data set [1]: in vitro. The conditions noted are these: human, microsomes, pH 7.4.
Another data set addresses SARS-CoV-1 Mpro (Severe acute respiratory syndrome coronavirus (SARS-CoV), UniProt P0C6X7). It is filed as biochemical.
The target in a further data set is OC43 Mpro (Human coronavirus OC43 (HCoV-OC43), UniProt P0C6X6). It is filed as biochemical.
For a further data set, the target named is MERS Mpro (Middle East respiratory syndrome-related coronavirus (isolate United Kingdom/H123990006/2012) (MERS-CoV) (Betacoronavirus England 1), UniProt K9N7C7). Description: biochemical.
Chain of MERS Mpro (K9N7C7 3248-3553 limits assumed): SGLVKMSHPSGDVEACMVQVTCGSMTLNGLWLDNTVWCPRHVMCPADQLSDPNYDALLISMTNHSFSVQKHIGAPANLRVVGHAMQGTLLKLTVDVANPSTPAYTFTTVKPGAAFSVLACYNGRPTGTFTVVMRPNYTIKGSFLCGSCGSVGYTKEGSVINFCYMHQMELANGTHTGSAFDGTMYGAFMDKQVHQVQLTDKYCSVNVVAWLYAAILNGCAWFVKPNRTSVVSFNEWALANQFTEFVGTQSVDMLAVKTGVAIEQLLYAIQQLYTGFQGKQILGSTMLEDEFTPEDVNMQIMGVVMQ
Data set [2] concerns SARS-CoV-2 (strain USA-WA1/2020). As to the kind of experiment: microbe, parasite or virus in culture. It counts as cell-based. The conditions noted are these: Severe acute respiratory syndrome coronavirus 2; HeLa-ACE2 cells; read-out: Antiviral CoV-2 EC50.
Another data set has as its target SARS-CoV-2 Mpro (Severe acute respiratory syndrome coronavirus 2 (2019-nCoV) (SARS-CoV-2), UniProt P0DTD1). It is filed as biochemical.
A short description of data set [3]: in vitro. Particulars: rat, microsomes, pH 7.4.
In the next data set the target is 229E Mpro (Human coronavirus 229E (HCoV-229E), UniProt P0C6X1). It counts as biochemical.
Chain of 229E Mpro (P0C6X1 2966-3267 limits assumed): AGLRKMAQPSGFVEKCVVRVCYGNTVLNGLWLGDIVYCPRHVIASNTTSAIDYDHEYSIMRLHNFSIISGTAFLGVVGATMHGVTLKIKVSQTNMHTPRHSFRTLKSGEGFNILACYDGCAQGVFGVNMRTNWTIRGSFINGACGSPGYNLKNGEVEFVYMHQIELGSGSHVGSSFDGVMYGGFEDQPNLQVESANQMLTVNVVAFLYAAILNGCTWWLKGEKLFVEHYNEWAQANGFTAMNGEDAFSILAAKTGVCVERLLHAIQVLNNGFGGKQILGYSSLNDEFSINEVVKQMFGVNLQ
A short description of data set [4]: in vitro. The conditions noted are these: PAMPA.

Where only a bound is given, the exact number is not on record here.

The record followed here is US20240158368A1, “Pyrrolidine Main Protease Inhibitors as Antiviral Agents” (AbbVie Inc., priority 2022, published 2024).

A word on the CLint scaled: it is a measure of how fast metabolising enzymes remove a compound, apart from limits set by blood flow. Read a high CLint scaled as rapid turnover. Broadly, the EC50 is the concentration that produces a half-maximal response. The term Papp denotes a coefficient for how fast a substance crosses the barrier. Lower therefore signals slow passage.

Chain of OC43 Mpro (P0C6X6 3247-3549 limits assumed): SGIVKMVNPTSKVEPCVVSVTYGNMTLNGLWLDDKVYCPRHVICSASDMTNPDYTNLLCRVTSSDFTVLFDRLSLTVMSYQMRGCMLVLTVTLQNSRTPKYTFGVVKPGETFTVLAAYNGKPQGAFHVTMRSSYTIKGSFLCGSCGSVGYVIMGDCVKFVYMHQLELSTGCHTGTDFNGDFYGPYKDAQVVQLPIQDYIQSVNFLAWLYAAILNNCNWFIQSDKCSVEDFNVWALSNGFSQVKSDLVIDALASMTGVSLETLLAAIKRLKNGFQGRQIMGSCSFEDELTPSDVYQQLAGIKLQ

On to `N#Cc1cc(C(=O)N2CCOCC2)c(N2CC[C@@H](NC(=O)c3c(F)c(=O)[nH]c4c(F)cccc34)C2)c(C(F)F)c1` [Compound 39], for which the results for the CLint scaled in “in vitro [1]” and in “in vitro [3]” were less than 25 mL/min/kg and less than 41.7 mL/min/kg, respectively. For the same compound, the EC50 at SARS-CoV-1 Mpro was determined as 2.56 nM; on OC43 Mpro, 1.05 nM; on MERS Mpro, 1.12 nM; in data set [2], 18.9 nM; on SARS-CoV-2 Mpro, 0.42 nM; on 229E Mpro it was 3.45 nM. The compound further had a Papp in the data set “in vitro [4]” of 4.71 ×10⁻⁶ cm/s.
On to `COCCN1CCN(C(=O)c2cc(Br)cc(C(F)(F)F)c2N2CC[C@@H](NC(=O)c3cc(=O)[nH]c4c(F)cccc34)C2)CC1` [Compound 67], for which the CLint scaled in the data set “in vitro [1]” was 313 mL/min/kg; in the data set “in vitro [3]” it was 1180 mL/min/kg. Besides, the EC50 was 2.56 nM at SARS-CoV-1 Mpro; 1.52 nM on OC43 Mpro; 1.5 nM on MERS Mpro; 0.5 nM on SARS-CoV-2 Mpro; 4.22 nM on 229E Mpro. The compound also had a Papp in “in vitro [4]” of 16.3 ×10⁻⁶ cm/s.
In the case of `CN1CCN(C(=O)c2cc(Cl)cc(C(F)(F)F)c2N2CC[C@@H](NC(=O)c3cc(=O)[nH]c4c(F)cccc34)C2)CC1` [Compound 37], the CLint scaled in the data set “in vitro [1]” is 150 mL/min/kg; in “in vitro [3]”, 423 mL/min/kg. For the same compound, the EC50 was found to be 1.68 nM at SARS-CoV-1 Mpro; 1 nM at OC43 Mpro; 1.22 nM on MERS Mpro; 28.8 nM in data set [2]; 0.63 nM at SARS-CoV-2 Mpro; 2.53 nM at 229E Mpro. Moreover, the Papp in “in vitro [4]” was determined as 6.23 ×10⁻⁶ cm/s.
For the compound `O=C(N[C@@H]1CCN(c2c(C(=O)N3CCN4CCOCC4C3)cc(Br)cc2C(F)(F)F)C1)c1cc(=O)[nH]c2c(F)cccc12` (stereo partly shown) [Compound 71], the CLint scaled in the data set “in vitro [1]” is 423 mL/min/kg; in the data set “in vitro [3]” it was 358 mL/min/kg. Further, the EC50 on SARS-CoV-1 Mpro came to 1.94 nM; on OC43 Mpro, 0.66 nM; on MERS Mpro, 0.78 nM; on SARS-CoV-2 Mpro, 0.42 nM; on 229E Mpro, 3.84 nM. In “in vitro [4]”, the Papp was found to be 18.8 ×10⁻⁶ cm/s.
For `CO[C@H]1CN(c2c(C(=O)N3CCOCC3)cc(C#N)cc2C(F)(F)F)C[C@@H]1NC(=O)c1cc(=O)[nH]c2c(F)cccc12` [Compound 32], the CLint scaled was 48.3 mL/min/kg in the data set “in vitro [1]” and less than 70 mL/min/kg in “in vitro [3]”. The EC50 was found to be 1.17 nM at OC43 Mpro; 1.06 nM on MERS Mpro; 18.6 nM in data set [2]; 0.45 nM on SARS-CoV-2 Mpro; 1.78 nM on 229E Mpro. The Papp in “in vitro [4]” amounted to 7.29 ×10⁻⁶ cm/s.
Regarding `Cc1[nH]c(=O)cc(C(=O)N[C@@H]2CCN(c3c(C(=O)N4CCOCC4)cc(Br)cc3C(F)(F)F)C2)c1F` [Compound 59], the CLint scaled in the data set “in vitro [1]” was less than 61.7 mL/min/kg; in “in vitro [3]”, less than 68.3 mL/min/kg. The EC50 at OC43 Mpro was 6.09 nM; at MERS Mpro it was 1.01 nM; in data set [2], 95.6 nM; on SARS-CoV-2 Mpro, 1.11 nM; at 229E Mpro, 20.4 nM. For the same compound, the Papp in the data set “in vitro [4]” stood at 8.24 ×10⁻⁶ cm/s.
With `O=C(N[C@@H]1CCN(c2c(C(=O)N3CCOCC3)cc(Br)cc2C(F)(F)F)C1)c1cc(=O)[nH]c2c(F)ccc(F)c12` [Compound 52], the figures for the CLint scaled in “in vitro [1]” and in the data set “in vitro [3]” were 183 mL/min/kg and 452 mL/min/kg, respectively. For the same compound, the EC50 at OC43 Mpro was 0.84 nM; at MERS Mpro, 1.03 nM; in data set [2] it was 9 nM; on SARS-CoV-2 Mpro it was 0.43 nM; at 229E Mpro it was 3.58 nM. Moreover, in the data set “in vitro [4]”, the Papp is 12.6 ×10⁻⁶ cm/s.
As to `Cc1cc(C(=O)N[C@@H]2CCN(c3c(C(=O)N4CCOCC4)cc(C#N)cc3C(F)(F)F)C2)c(F)c(=O)[nH]1` [Compound 10], the CLint scaled was less than 30 mL/min/kg in “in vitro [1]” and less than 50 mL/min/kg in “in vitro [3]”. Besides, the EC50 worked out at 12 nM on OC43 Mpro; 1.5 nM on MERS Mpro; 589 nM in data set [2]; 0.54 nM at SARS-CoV-2 Mpro; 7.63 nM on 229E Mpro. The Papp in the data set “in vitro [4]” is 0.7 ×10⁻⁶ cm/s.
Consider `N#Cc1cc(C(=O)N2CCOCC2)c(N2CC[C@@H](NC(=O)c3c(F)c(=O)[nH]c4ccccc34)C2)c(C(F)(F)F)c1` [Compound 6], for which the values for the CLint scaled in the data set “in vitro [1]” and in “in vitro [3]” were less than 35 mL/min/kg and 81.7 mL/min/kg, respectively. The EC50 at OC43 Mpro was 1.44 nM; at MERS Mpro, 2.51 nM; in data set [2], 21.9 nM; at SARS-CoV-2 Mpro, 0.78 nM; on 229E Mpro, 2.32 nM. This compound also came in with a Papp in “in vitro [4]” of 3.22 ×10⁻⁶ cm/s.
`Cc1cc(C(=O)N2CCOCC2)c(N2CC[C@@H](NC(=O)c3cc(C)[nH]c(=O)c3F)C2)c(C2CC2)c1` [Compound 60] showed a CLint scaled in the data set “in vitro [1]” of 66.7 mL/min/kg. Moreover, the EC50 on SARS-CoV-1 Mpro was 0.74 nM; on OC43 Mpro it was 1.22 nM; on MERS Mpro it was 1.4 nM; in data set [2] it was 180 nM; at SARS-CoV-2 Mpro, 0.48 nM; at 229E Mpro it was 5.14 nM. In addition, the Papp in “in vitro [4]” stood at 2.95 ×10⁻⁶ cm/s.
As for `N#Cc1cc(C(=O)N2CCOCC2)c(N2CC[C@@H](NC(=O)c3cc(=O)[nH]c4c(F)cccc34)C2)c(C2CC2)c1` [Compound 40], the CLint scaled in the data set “in vitro [1]” is less than 28.3 mL/min/kg; in the data set “in vitro [3]” it was 220 mL/min/kg. For the same compound, the EC50 at OC43 Mpro was 0.55 nM; at MERS Mpro, 0.89 nM; in [2], 5 nM; on SARS-CoV-2 Mpro it was 0.42 nM; on 229E Mpro it was 2.47 nM. Further, the Papp in “in vitro [4]” worked out at 5.15 ×10⁻⁶ cm/s.
For `O=C(N[C@@H]1CCN(c2c(OC(F)F)cc(Cl)cc2C(=O)N2CCOCC2)C1)c1cc(=O)[nH]c2c(F)cccc12` [Compound 43], the CLint scaled was 100 mL/min/kg in the data set “in vitro [1]” and 312 mL/min/kg in the data set “in vitro [3]”. Besides, the EC50 worked out at 3.17 nM on OC43 Mpro; 1.41 nM at MERS Mpro; 24.7 nM in data set [2]; 0.46 nM at SARS-CoV-2 Mpro; 15 nM on 229E Mpro. Further, in “in vitro [4]”, the Papp stood at 12.7 ×10⁻⁶ cm/s.
Take `N#Cc1cc(C(=O)N2CCOCC2)c(N2C[C@H](NC(=O)c3cc(=O)[nH]c4c(F)cc(F)cc34)CC2=O)c(C(F)(F)F)c1` [Compound 33]: the results for the CLint scaled in the data set “in vitro [1]” and in the data set “in vitro [3]” were less than 35 mL/min/kg and less than 56.7 mL/min/kg, respectively. Besides, the EC50 at OC43 Mpro worked out at 171 nM; at MERS Mpro it was 2.49 nM; in data set [2], 174 nM; at SARS-CoV-2 Mpro, 0.92 nM; at 229E Mpro, 38.5 nM. In addition, in the data set “in vitro [4]”, the Papp is 1.12 ×10⁻⁶ cm/s.
Turning to `N#Cc1cc(C(=O)N2CCOCC2)c(N2CC[C@@H](NC(=O)c3cc(=O)[nH]c4c(F)cc(F)cc34)C2)c(C(F)(F)F)c1` [Compound 7], the CLint scaled was less than 35 mL/min/kg in “in vitro [1]” and less than 58.3 mL/min/kg in the data set “in vitro [3]”. The EC50 at OC43 Mpro worked out at 4.95 nM; on MERS Mpro it was 0.99 nM; in [2], 25.6 nM; at SARS-CoV-2 Mpro, 0.43 nM; at 229E Mpro, 2.76 nM. In addition, the Papp in “in vitro [4]” stood at 6.77 ×10⁻⁶ cm/s.
Turning to `O=C(N[C@@H]1CCN(c2c(OC(F)(F)F)cc(Br)cc2C(=O)N2CCOCC2)C1)c1cc(=O)[nH]c2c(F)cccc12` [Compound 42], the CLint scaled in the data set “in vitro [1]” was 125 mL/min/kg; in “in vitro [3]”, 482 mL/min/kg. In addition, the EC50 on OC43 Mpro came to 1.4 nM; at MERS Mpro, 1.05 nM; in data set [2], 8.2 nM; on SARS-CoV-2 Mpro, 0.45 nM; at 229E Mpro it was 3.58 nM. The same compound returned a Papp in the data set “in vitro [4]” of 14.7 ×10⁻⁶ cm/s.
Consider `NC(=O)c1cc(C(=O)N2CCOCC2)c(N2CC[C@@H](NC(=O)c3cc(=O)[nH]c4c(F)cccc34)C2)c(C(F)(F)F)c1` [Compound 35], for which the CLint scaled in “in vitro [1]” was less than 28.3 mL/min/kg; in “in vitro [3]”, 46.7 mL/min/kg. Also, the EC50 was 2.45 nM at SARS-CoV-1 Mpro; 16.5 nM on OC43 Mpro; 0.93 nM at MERS Mpro; 0.53 nM at SARS-CoV-2 Mpro; 2.6 nM on 229E Mpro. The Papp in the data set “in vitro [4]” is 0.1 ×10⁻⁶ cm/s.
